Experimental data: patent US20240166596A1, “SULFAMOYL BENZENE DERIVATIVES AND USES THEREOF” (AphioTx Inc., priority 2021, published 2024)
“Also recorded” adds a separate entry of the source.

How the values were obtained:
Long Evans rats = assay: Morphine self-administration, extinction and cue-induced reinstatement (opioid seeking); format: in vivo
Procedure: Adult (8 to 10 weeks old at the beginning of the experiments) wild-type male and female Long Evans rats (250-350g) were used. Animals were group housed prior to jugular vein catheter implant surgery with two to three animals per cage on a 12/12 hours dark/light cycle (lights on at 7:00 AM). Rats were acclimated to the animal facility holding rooms for at least 7 days before any manipulation. After catheter implantation, animals were single housed to prevent damage to the harnesses. All experiments were performed during the light cycle. Rats received food and water ad libitum until 2 days prior to starting the behavioral studies, when food restriction (16 g of rat chow per day) started and continued until the end of the experiments.
All surgeries were performed under isoflurane (2.5/3 MAC) anesthesia using sterile aseptic techniques. For intravenous (IV) self-administration (SA), animals were implanted with sterile catheters in the right jugular vein and connected to a harness placed over the torso. The harness allowed for minimal stress while connecting and disconnecting the animal from infusion lines. The catheter was kept patent by daily infusions of gentamicin mixture (1.33 mg/ml).
Equipment: Rat self-administration was conducted using operant-conditioning chambers (Med Associates) equipped with two retractable levers with a food magazine connected to a food pellet dispenser between them. Two cue lights were positioned above the levers, and one house light was positioned on the top left-hand wall. During self-administration sessions both levers (correct and incorrect lever) were extended out with white cue light turned on only above the correct lever. […]
All experiments were performed at least twice, including each treatment condition to prevent an unspecific day/condition effect. […] All data are expressed as mean±SEM. […] After assessing the normality of sample data using Shapiro-Wilk test, statistical significance was determined by two-way repeated-measures ANOVA followed by two-tailed Sidak post hoc test. Data was analyzed using GraphPad Prism 8.1.0.

Panx1 channel = target: T1, Panx1 channel (Mus musculus, UniProt Q9JIP4); assay: YO-PRO-1 dye uptake assay in BV-2 microglia-like cells (BzATP stimulation); format: cell-based; conditions: BV-2 cells
T1 construct: endogenous in cells; host or cells: BV-2 microglia-like cells
T1 sequence (Q9JIP4 whole entry): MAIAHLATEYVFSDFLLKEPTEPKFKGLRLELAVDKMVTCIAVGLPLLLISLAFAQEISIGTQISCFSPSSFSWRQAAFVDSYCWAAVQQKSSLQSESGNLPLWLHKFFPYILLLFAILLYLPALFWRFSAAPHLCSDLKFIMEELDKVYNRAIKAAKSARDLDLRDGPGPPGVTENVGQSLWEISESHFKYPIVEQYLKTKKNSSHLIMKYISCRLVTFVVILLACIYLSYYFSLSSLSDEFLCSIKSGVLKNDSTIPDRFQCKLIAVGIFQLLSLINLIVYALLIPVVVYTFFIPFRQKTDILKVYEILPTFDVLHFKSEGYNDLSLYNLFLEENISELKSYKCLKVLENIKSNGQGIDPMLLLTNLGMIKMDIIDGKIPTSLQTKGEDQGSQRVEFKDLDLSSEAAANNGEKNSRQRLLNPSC
Procedure: After plating into 96 well plates, cell culture media was removed and BV-2 cells were incubated in extracellular solution (ECS) (140 mM NaCl, 4.5 mM KCl, 1.3 mM CaCl2, 10 mM HEPES, and 33 mM glucose; pH7.35, osmolarity 315 mOsm) containing YO-PRO-1 dye (2.5 μM, Invitrogen). After a 5 minute baseline recording, cells were stimulated with 3′-O-(4-benzoyl)benzoyl adenosine 5′-triphosphate (BzATP) (150 μM, Toronto Research Chemicals) and dye-uptake was recorded for 30 minutes. Cell viability was assessed immediately after the 30 minute recording by application of ionomycin (1 μM, Sigma). […] YO-PRO-1 fluorescent emission (491/509) was detected using a FilterMax F5 plate reader (Molecular Devices). Drugs used include (−)-norepinephrine (100 pM-1 μM, Sigma), probenecid (1 mM, Life Technologies), and Compound 1 (10 nM, Derksen et al). Drugs were bath applied in ECS containing YO-PRO-1 dye and incubated at 37° C. for 10 minutes prior to BzATP stimulation. Fluorescent emission at 30 minutes post-BzATP was calculated as an average of the entire imaging field as percent change from baseline, and responses at 30 minutes were averaged over multiple independent experiments. Individual traces of BV-2 YO-PRO-1 dye uptake were taken at 10 minute intervals and represent the average response of all BV-2 cells in the recorded view from a subset of experiments.
BV-2 microglia-like cells were maintained in DMEM (Gibco) containing 5% fetal bovine serum (Gibco) and 1% penicillin-streptomycin (Gibco) with 5% CO2.
The compounds tested were designed to more readily penetrate the blood brain barrier and were therefore predicted to require a lower dose to produce similar effects. Prior to testing the compounds in animals, the compounds were first tested in BV2 microglia-like cells using the YO-PRO-1 Dye Uptake Assay. By using this assay, Panx1 channel activity in response to BzATP stimulation of P2X7, an upstream receptor that causes Panx1 pore formation can be assessed. YO-PRO-1 is a large molecular weight dye that can only enter the cell through large pore ion channels such as Panx1, therefore its uptake correlates with Panx1 channel opening. BzATP stimulation causes a significant increase in YO-PRO-1 dye uptake in cells pre-treated with ECS and vehicle solution (0.1% DMSO) (FIG. 1, B).

CCCN(CCC)S(=O)(=O)c1ccc(C(O)(C(F)(F)F)C(F)(F)F)cc1 [Compound 1, 4-(1,1,1,3,3,3-hexafluoro-2-hydroxypropan-2-yl)-N,N-dipropylbenzenesulfonamide]
Extinction of morphine seeking behaviour (lever pressing) (Long Evans rats; 0.5 mg/kg i.p. 1 hour prior to each extinction session, vs saline): did not show a reduction in time required for extinction; also recorded: no difference was observed | Lever presses (morphine seeking) during reinstatement, all animals (Long Evans rats; 0.5 mg/kg i.p. during extinction, before reinstatement, or both, vs saline): significant reduction in the number of lever presses; also recorded: rescued | Lever presses (morphine seeking) during reinstatement, female rats (Long Evans rats; 0.5 mg/kg i.p. during extinction, first day of reinstatement, or both, females): decreased the number of lever presses; also recorded: reversed | Potency at inhibiting Panx1 channel opening relative to probenecid (Panx1 channel): more potent than probenecid | Concentration blocking Panx1 channel activity, fold lower than probenecid (Panx1 channel; Compound 1 10 nM vs probenecid 1 mM): 100,000 fold | Panx1 channel activity (BzATP-stimulated YO-PRO-1 dye uptake) (Panx1 channel; Compound 1 10 nM, 10 min pre-treatment, BzATP 150 μM, 30 min): significantly blocked
